According to patent US20070098693A1, “Methods for enhancing engraftment of purified hematopoietic stem cells in allogenic recipients” (priority 2003, published 2007):

Experiments:
Type in all cases: cell-based, mice
[1] = tested on: B220^+/CD11c^dim/CD11b^− p-preDC; assay: Cell death of sorted p-preDC after overnight culture (7AAD staining)
Excerpt: (§1) mAbs and Flow cytometry. The following mAbs (all from BD Biosciences Pharmingen, San Diego, Calif., except those labeled with APC-cy-7 from eBioscience, San Diego, Calif.) were used. To sort CD8^+/TCR^− FC: anti-CD8α (53-6.7) PE-labeled, anti-TCR β chain (H57-597) and anti-TCR γδ chain (GL3) FITC-labeled. To sort B220^+/CD11c^dim/CD11b^− p-preDC: anti-CD11b (M1/70) APC-labeled, anti-CD45R/B220 (RA3-6B2) APC-Cy7-labeled, anti-CD11c (HL3) PE-labeled, and anti-TCR β chain (H57-597), anti-TCR γδ chain (GL3), anti-CD14 (rmC5-3), anti-CD19 (1D3), anti-Pan-NK cells (DX5), and anti-NK1.1 (PK136), all FITC-labeled. To sort HSC: anti-TCR β chain (H57-597), anti-TCR γδ chain (GL3), anti-Ly-6G (Gr-1), anti-CD11b, Mac1 (M1/70), anti-CD8α (53-6.7) and anti-CD45R/B220 (RA3-6B2), all FITC-labeled, anti-Ly-6A/E (Sca-1) (E13-161.7) PE-labeled and anti-c-Kit (CD117) (2B8) APC-labeled. To restain the sorted FC population: purified anti-CD16/CD32 (FcγIII/II receptors) (2.4G2), anti-CD11c (HL3), anti-CD4 (RM4-5) and anti-CD19 (1D3) all APC-labeled, anti-CD45R/B220 (RA3-6B2) PerCP-labeled, and anti-Pan-NK cells (DX5), anti-NK1.1 (PK136), anti-CD14 (rmC5-3), and anti-Ly-6G (Gr-1) FITC-labeled. To analyze the activation state: anti-CD80 (B7-1) ([…]), anti-CD86 (B7-2) ([…]), and anti-I-A^b (Aβ^b) (AF6-120.1) FITC-labeled. For PBL typing and multilineage chimerism: anti-H-2 K^b (AF6-88.5) PE or FITC-labeled, anti-H-2K^k (36-7-5) PE or FITC-labeled, anti-TCR β chain (H57-597), anti-NK1.1 (PK136), anti-Ly-6G (Gr-1), anti-CD11b, Mac1 (M1/70) and anti-CD45R/B220 (RA3-6B2) all FITC-labeled. Detection of dead cells after cell culture was determined by using a 7-Amino-actinomycin D (7-AAD) (Molecular Probes, Eugene, Oreg.) followed by FACS analysis.
CpG oligodeoxynucleotides (ODN) stimulation. […]

[2] = tested on: B220^+/CD11c^dim/CD11b^− p-preDC; assay: Activation marker expression on sorted p-preDC after 18 h culture (FACS)
Excerpt: as §1
(§2) CpG oligodeoxynucleotides (ODN) stimulation. Sorted p-preDC or FC were cultured for 18 hours at 10^5 cells/200 μL in 96 well round-bottom culture plates in culture medium in the presence or absence of Toll-like receptor (TLR)-9 ligand, CPG-ODN 1668 (TCCATGACGTTCCGATGCT) (SEQ ID NO. 1) (GibcoBRL Custom Primers) at 1 μM, TLR-4 ligand, LPS from Escherichia coli (Sigma, MO, USA) at 10 μg/ml, as previously described^30. CpG or LPS-treated or untreated cells were subsequently assayed for: 1) the expression of DC activation/maturation cell surface markers by FACS, 2) their survival rate by 7AAD staining, or 3) morphological appearance by Wright Giemsa staining on cytospins. The supernatant of these cultures were collected for analysis of the production of different cytokines by ELISA.

CD8^+/TCR^− FC [3] = assay: Cell death of sorted FC after overnight culture (7AAD staining)
Excerpt: as §1, §2

CD8^+/TCR^− FC [4] = assay: CpG ODN / LPS stimulation of sorted FC, cytokine production by ELISA / multiplex
Description: as §2
Cytokine production by ELISA. Briefly, the cell-free supernatants of 12H, 18H, or 24H cultured cells (FC or p-preDC,) with or without CpG ODN or LPS were collected and kept frozen at −80° C. The amount of cytokine produced was determined by 1) ELISA kits for mouse IFN-α (R&D system) and mouse TNF-α (Biosource International), and 2). Multiplex for MIP 1αCCL3), GM-CSF, MCP-1 (CCL2), RANTES (CCL5), IFN-γ, IL-1β, IL-2, IL-4, IL-5, IL-6, IL-10, IL-12p70, IL-9, and IL13 on 18 hour incubation supernatants from three different experiments performed by Linco Diagnostic Services (St. Charles, Mo.).

CD8^+/TCR^− FC [5] = assay: Activation marker expression on sorted FC after 18 h culture (FACS)
Excerpt: as §1, §2

[6] = FL-derived p-preDC, CpG ODN exposure overnight
[7] = fresh BM p-preDC, overnight exposure to CpG ODN, n=2
[8] = fresh FC, overnight culture with CpG
[9] = CpG ODN stimulation, 18 hours, multiplex
[10] = FL-derived FC and FL-derived p-preDC (FIG. 4c), CpG-ODN overnight
[11] = after culture with medium or CpG stimulation
[12] = FL-derived FC, CpG ODN exposure overnight
[13] = fresh BM FC, overnight exposure to CpG ODN, n=4

## CpG ODN: Toll-like receptor (TLR)-9 ligand, CPG-ODN 1668 (TCCATGACGTTCCGATGCT) (SEQ ID NO. 1) (DNA, backbone and methylation of C not given here)
[1]; CpG exposure (data not shown)
  rescue of FL-derived p-preDC from death: partially rescued
[1]; fresh p-preDC, overnight culture with CpG
  mortality of p-preDC (dead): 35±0.3%
[2]; [6]
  CD80 expression on FL-derived p-preDC after CpG ODN: 63%
  CD86 expression on FL-derived p-preDC after CpG ODN: 87%
  Class II expression on FL-derived p-preDC after CpG ODN: 88%
[2]; [7]
  CD80 expression on p-preDC: 12.5±1%
  CD86 expression on p-preDC: 85±13%
  Class II expression on p-preDC: 39±4%
CD8^+/TCR^− FC [3]; FL-derived FC, CpG ODN overnight versus medium
  decrease of mortality of FL-treated FC: 10-15%
CD8^+/TCR^− FC [3]; [8]
  decrease of FC mortality compared to media alone: 10%
  mortality of FC (dead cells): 43.5±3.5%
CD8^+/TCR^− FC [4]; [9]
  IL-6 production by FC: moderate amounts
  IL-12p70 production by FC: low levels
  Mip1-α/CCL3 production by FC: high amounts
  RANTES/CCL5 production by FC: moderate amounts
CD8^+/TCR^− FC [4]; CpG ODN stimulation, 24 hours, ELISA
  TNF-α production by FC: large amounts
CD8^+/TCR^− FC [4]; [10]
  IFN-α secretion of FL-derived cells after CpG-ODN: increased further
  IL-12p70 production of FL-derived cells after CpG-ODN: increased further
  TNF-α production of FL-derived cells after CpG-ODN: increased further
CD8^+/TCR^− FC [4]; [11]
  GM-CSF production by FC: no
  IFN-γ production by FC: low amounts
  IL9 production by FC: low amounts
  IL-1β production by FC: no
  IL-2 production by FC: no
  IL-4 production by FC: no
  IL-5 production by FC: no
  IL-10 production by FC: low amounts
  IL-13 production by FC: no
  MCP-1/CCL2 production by FC: low amounts
CD8^+/TCR^− FC [4]; sorted bone marrow FC cultured with stimulus, ELISA
  IFN-α production by FC: levels similar to those produced by p-preDC
CD8^+/TCR^− FC [5]; [12]
  CD80 expression on FL-derived FC after CpG ODN: 48%
  CD86 expression on FL-derived FC after CpG ODN: 77%
  Class II expression on FL-derived FC after CpG ODN: 73%
CD8^+/TCR^− FC [5]; [13]
  CD80 expression on FC: 23.5±8%
  CD86 expression on FC: 86±12%
  Class II expression on FC: 74±6.5%
